# Laboratory results from patent US20120115896A1, “ISOGENIC HUMAN CELL LINES COMPRISING MUTATED CANCER ALLELES AND PROCESS USING THE CELL LINES” (priority 2008, published 2012).
# “And” between values parts separate entries of the source, which are not always exact repeats. Equal values may be shown once. Read-outs that look alike come from different tables or passages of the source.
# What was measured:
# [1] = system: hTERT-HME1 cells carrying KRAS (G13D) KI; assay: Drug assay: cell viability by ATP content (96 h), KI versus parental cells; ΔKI pharmarray analysis; conditions: for pharmarray: differential response of KRAS mutated cells versus WT: hTERT-HME1, FIG. 5H
# [2] = system: hTERT-HME1 cells carrying BRAF (V600E) KI; assay: as above; conditions: for pharmarray: differential response of BRAF mutated cells versus WT: hTERT-HME1, FIG. 5H
# [3] = system: hTERT-HME1 DKI cells carrying PIK3CA (H1047R) and EGFR (delE746-A750); assay: Drug assay: cell viability by ATP content (96 h), DKI versus parental cells; ΔKI pharmarray analysis
# [4] = system: hTERT-HME1 cells carrying EGFR (delE746-A750) KI; assay: Drug assay: cell viability by ATP content (CellTiter-Glo, 96 h), KI versus parental cells; ΔKI pharmarray analysis
# [5] = system: hTERT-HME1 cells carrying PIK3CA (E545K and H1047R) KI; assay: Drug assay: cell viability by ATP content (96 h) and Hoechst/propidium iodide staining, KI versus parental cells; ΔKI pharmarray analysis
compound,measurement,setting,value
Tamoxifene Citrate,ΔKI KRAS,[1],0
same,ΔKI KRAS,[1]; Log(M) −4.75,0
same,ΔKI KRAS,[1]; Log(M) −5.35,0
same,ΔKI BRAF,[2],0
same,ΔKI BRAF,[2]; Log(M) −4.75,0
same,ΔKI BRAF,[2]; Log(M) −5.35,0
same,ΔKI PIK3CA + EGFR,[3],0.96 and 0.78
same,ΔKI PIK3CA + EGFR,[3]; Log(M) −4.75,0
same,ΔKI PIK3CA + EGFR,[3]; Log(M) −5.35,−0.92
same,ΔKI EGFR,[4],0
same,ΔKI EGFR,[4]; Log(M) −4.75,0
same,ΔKI EGFR,[4]; Log(M) −5.35,−0.54
same,ΔKI PIK3CA,[5]; Log(M) −4.75,0
same,ΔKI PIK3CA,[5]; Log(M) −5.35,0.9
Sodium Phenylbutyrate,ΔKI KRAS,[1]; Log(M) −1.97,0
same,ΔKI KRAS,[1]; Log(M) −2.44,0
same,ΔKI KRAS,[1]; Log(M) −2.92,0
same,ΔKI BRAF,[2]; Log(M) −1.97,0
same,ΔKI BRAF,[2]; Log(M) −2.44,0
same,ΔKI BRAF,[2]; Log(M) −2.92,0
same,ΔKI PIK3CA + EGFR,[3]; Log(M) −1.97,0
same,ΔKI PIK3CA + EGFR,[3]; Log(M) −2.44,0
same,ΔKI PIK3CA + EGFR,[3]; Log(M) −2.92,0
same,ΔKI EGFR,[4]; Log(M) −1.97,0
same,ΔKI EGFR,[4]; Log(M) −2.44,0
same,ΔKI EGFR,[4]; Log(M) −2.92,0
same,ΔKI PIK3CA,[5]; Log(M) −1.97,0
same,ΔKI PIK3CA,[5]; Log(M) −2.44,0
same,ΔKI PIK3CA,[5]; Log(M) −2.92,0
"CC(C)c1nc(N(C)S(C)(=O)=O)nc(-c2ccc(F)cc2)c1/C=C/[C@@H](O)C[C@@H](O)CC(=O)O [rosuvastatin, Rosuvastatin Ca]",pharmarray: differential response of BRAF mutated cells versus WT,[2],more resistant
Erlotinib mesylate,pharmarray: differential response of KRAS mutated cells versus WT,[1],resistant
same,pharmarray: differential response of BRAF mutated cells versus WT,[2],resistant
same,sensitization in DKI cells containing both EGFR and PIK3CA alterations,[3],abrogates the sensitization seen with the EGFR KI alone
same,growth inhibition of EGFR delE746-A750 KI versus WT cells,[4],preferentially inhibited the growth
same,pharmarray: differential response of EGFR mutated cells versus WT,[4],inhibit EGFR mutated cells selectively
same,IC50,[4]; read-out: IC50 values of erlotinib in EGFR mutant cells,250 ± 140 nM
"COc1cc2ncnc(Nc3ccc(F)c(Cl)c3)c2cc1OCCCN1CCOCC1 [gefitinib, Gefitinib]",pharmarray: differential response of KRAS mutated cells versus WT,[1],resistant
same,pharmarray: differential response of BRAF mutated cells versus WT,[2],resistant
CC/C(=C(\c1ccc(O)cc1)c1ccc(OCCN(C)C)cc1)c1ccccc1 [Tamoxifen 4-Hydroxy-(Z)],ΔKI KRAS,[1],0
same,ΔKI BRAF,[2],0
"CC[C@H](C)C(=O)O[C@H]1CCC=C2C=C[C@H](C)[C@H](CC[C@@H]3C[C@@H](O)CC(=O)O3)[C@H]21 [mevastatin, Mevastatin]",pharmarray: differential response of BRAF mutated cells versus WT,[2],more resistant
"C=CCNC1=C2C[C@@H](C)C[C@H](OC)[C@H](O)[C@@H](C)/C=C(\C)[C@H](OC(N)=O)[C@@H](OC)/C=C\C=C(/C)C(=O)NC(=CC1=O)C2=O [17-AAG, 17-Allylamino geldanamycin]",ΔKI BRAF,[2],0
same,ΔKI BRAF,[2]; Log(M) −5.70,0.08
same,ΔKI BRAF,[2]; Log(M) −6.70,0
same,ΔKI PIK3CA + EGFR,[3],0
same,ΔKI PIK3CA + EGFR,[3]; Log(M) −5.70,1.18
same,ΔKI PIK3CA + EGFR,[3]; Log(M) −6.70,0
same,ΔKI EGFR,[4],−11.7
same,ΔKI EGFR,[4]; Log(M) −5.70,0
same,ΔKI EGFR,[4]; Log(M) −6.70,0
same,pharmarray: differential response of EGFR mutated cells versus WT,"[4]; hTERT-HME1, FIG. 5B, 5E",less susceptible than their WT counterpart
same,ΔKI PIK3CA,[5],0
same,ΔKI PIK3CA,[5]; Log(M) −5.70,3
same,ΔKI PIK3CA,[5]; Log(M) −6.70,0
Sunitinib Maleate,ΔKI KRAS,[1]; Log(M) −4.82,0
same,ΔKI KRAS,[1]; Log(M) −5.30,0
same,ΔKI KRAS,[1]; Log(M) −5.78,0
same,ΔKI BRAF,[2]; Log(M) −4.82,0
same,ΔKI BRAF,[2]; Log(M) −5.30,4.42
same,ΔKI BRAF,[2]; Log(M) −5.78,0
"COc1ccc2c(c1)c(CC(=O)O)c(C)n2C(=O)c1ccc(Cl)cc1 [indomethacin, Indomethacin]","extended analysis of effect on PIK3CA KI versus WT cells (viability, apoptosis)","[5]; hTERT-HME1, 96 h, ATP assay, Hoechst/propidium iodide, FIG. 19",acts preferentially on cells carrying the PIK3CA mutation with both anti-proliferative and pro-apoptotic effects
same,pharmarray: differential response of PIK3CA mutated cells versus WT,"[5]; hTERT-HME1, FIG. 5G",unexpectedly active on PIK3CA mutated cells
"CC[C@H](C)C(=O)O[C@H]1C[C@@H](C)C=C2C=C[C@H](C)[C@H](CC[C@@H]3C[C@@H](O)CC(=O)O3)[C@H]21 [lovastatin, Lovastatin]",pharmarray: differential response of BRAF mutated cells versus WT,[2],more resistant
